Test results from ChEMBL document CHEMBL2346539, “Effects of geraniin on osteoclastic bone resorption and matrix metalloproteinase-9 expression” (2013).
Calls of active or inactive are those of the source. The calls are words filed in the database; no cut-off is given here.

Tests used:
[1] = Reduction of MMP9 protein expression in rat osteoclasts assessed as reduction in mean optical density by immunocytochemistry analysis; assay type: functional, cell-based; conditions: Osteoclast
[2] = Reduction of MMP9 mRNA expression in rat osteoclasts assessed as reduction in mean optical density at 10^-8 mol/L by in situ hybridization assay; assay type: functional, cell-based; conditions: Osteoclast
Bone [3] = assay: Inhibition of osteoclastogenesis in Sprague-Dawley rat bone assessed as inhibition of fusion index at 10^-11 mol/L after 72 hrs by microscopy; assay type: functional; conditions: Bone element
Bone [4] = assay: Inhibition of osteoclastogenesis in Sprague-Dawley rat bone assessed as inhibition of fusion index at 10^-8 mol/L after 72 hrs by microscopy; assay type: functional; conditions: Bone element
Bone [5] = assay: Inhibition of osteoclastogenesis in Sprague-Dawley rat bone assessed as decrease in TRAP-positive multi-nucleated cells at 10^-8 mol/L after 72 hrs by microscopy; assay type: functional, tissue-based; conditions: Bone element
Osteoclast [6] = assay: Reduction in number of resorption pits in rat osteoclasts-stimulated bovine bone at 10^-8 mol/L co-cultured for 72 hrs using toluidine blue staining by SEM analysis; assay type: functional, cell-based
Osteoclast [7] = assay: Inhibition of rat osteoclasts-induced resorption in bovine bone co-cultured for 72 hrs using toluidine blue staining by SEM analysis; assay type: functional, cell-based
[8] = Reduction of MMP9 mRNA expression in rat osteoclasts assessed as reduction in integral optical density at 10^-8 mol/L by in situ hybridization assay; assay type: functional, cell-based; conditions: Osteoclast
Bone [9] = assay: Reduction in number of pre-osteoclasts in Sprague-Dawley rat bone at 10^-8 mol/L after 72 hrs by microscopy; assay type: functional, tissue-based; conditions: Bone element
Bone [10] = assay: Inhibition of osteoclastogenesis in Sprague-Dawley rat bone assessed as decrease in TRAP-positive multi-nucleated cells after 72 hrs by microscopy; assay type: functional, tissue-based; conditions: Bone element
Osteoclast [11] = assay: Inhibition of rat osteoclasts-induced resorption in bovine bone at 10^-8 mol/L co-cultured for 72 hrs using toluidine blue staining by SEM analysis; assay type: functional, cell-based
Bone [12] = assay: Inhibition of osteoclastogenesis in Sprague-Dawley rat bone assessed as inhibition of fusion index at 10^-10 mol/L after 72 hrs by microscopy; assay type: functional; conditions: Bone element
Bone [13] = assay: Inhibition of osteoclastogenesis in Sprague-Dawley rat bone assessed as inhibition of fusion index at 10^-9 mol/L after 72 hrs by microscopy; assay type: functional; conditions: Bone element
[14] = Reduction of MMP9 protein expression in rat osteoclasts assessed as reduction in integral optical density by immunocytochemistry analysis; assay type: functional, cell-based; conditions: Osteoclast

O=C1O[C@H]2[C@@H]3OC(=O)c4cc(O)c(O)c(O)c4-c4c(cc(O)c(O)c4O)C(=O)OC[C@H]2O[C@@H](OC(=O)c2cc(O)c(O)c(O)c2)[C@@H]3OC(=O)c2cc(O)c(O)c3c2[C@@H]2C1=CC(=O)[C@](O)(O3)C2(O)O [GERANIIN]
Activity [1]: Dose-dependent effect
Activity [2]: Active
inhibition at 10 pM (Bone [3]): 3.05%
inhibition at 0.01 µM (Bone [4]): 46%
inhibition (Bone [5]): Active
Activity (Osteoclast [6]): Active
inhibition (Osteoclast [7]): Dose-dependent effect
Activity [8]: Active
Activity (Bone [9]): Active
inhibition (Bone [10]): Dose-dependent effect
inhibition (Osteoclast [11]): Active
inhibition at 0.0001 µM (Bone [12]): 9.31%
inhibition at 0.001 µM (Bone [13]): 24.2%
Activity [14]: Dose-dependent effect
